Results as given in patent US12172983B2, “EGFR inhibitors” (Blueprint Medicines Corporation, priority 2019, dated 2024).
Where two headings read alike, the source gives them in different places.

Experiments:
[1] = tested on: phosphorylation of EGFR (Tyr1068) in NCI-H1975 cell line that harbors the EGFR L858R T790M mutations; experiment: NCI-H1975 pEGFR AlphaLISA assay; assay type: cell-based; details: 4-5 hours incubation, read-out: Ext pEGFR H1975
In short: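 NCI-H1975 cells (EGFR L858R/T790M) seeded overnight, then treated with compound for 4-5 h at 37 °C/5% CO2. After lysis, p-EGFR (Tyr1068) quantified by AlphaLISA SureFire Ultra with acceptor then donor beads; IC50 fitted from percent inhibition versus log concentration.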

EGFR (L858R T790M C797S) = biological target: T1, EGFR (L858R T790M C797S) (Homo sapiens, UniProt P00533, C797S/L858R/T790M); experiment: Biochemical EGFR inhibition assay (Caliper mobility shift), EGFR LRTMCS mutant; details: inhibitory activity against EGFR LRTMCS mutant; apparent IC50; read-out: Ext Enz LRTMCS
T1 construct: purchased SignalChem E10-122VG
In short: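 Kinase reactions proceed at 25° C. to 10%–20% conversion of total peptide, are terminated with 35 mM EDTA, and the phosphopeptide is resolved from substrate by electrophoretic mobility shift. Apparent IC50 values come from plotting percent activity against log compound concentration.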

[2] = inhibition of phosphorylation of mutant EGFR in NCI-H1975 cells
[3] = Homo sapiens, NCI-H1975, inhibition of phosphorylation of mutant EGFR in NCI-H1975 cells

T1 sequence (P00533 25-1210 T790M/C797S/L858R): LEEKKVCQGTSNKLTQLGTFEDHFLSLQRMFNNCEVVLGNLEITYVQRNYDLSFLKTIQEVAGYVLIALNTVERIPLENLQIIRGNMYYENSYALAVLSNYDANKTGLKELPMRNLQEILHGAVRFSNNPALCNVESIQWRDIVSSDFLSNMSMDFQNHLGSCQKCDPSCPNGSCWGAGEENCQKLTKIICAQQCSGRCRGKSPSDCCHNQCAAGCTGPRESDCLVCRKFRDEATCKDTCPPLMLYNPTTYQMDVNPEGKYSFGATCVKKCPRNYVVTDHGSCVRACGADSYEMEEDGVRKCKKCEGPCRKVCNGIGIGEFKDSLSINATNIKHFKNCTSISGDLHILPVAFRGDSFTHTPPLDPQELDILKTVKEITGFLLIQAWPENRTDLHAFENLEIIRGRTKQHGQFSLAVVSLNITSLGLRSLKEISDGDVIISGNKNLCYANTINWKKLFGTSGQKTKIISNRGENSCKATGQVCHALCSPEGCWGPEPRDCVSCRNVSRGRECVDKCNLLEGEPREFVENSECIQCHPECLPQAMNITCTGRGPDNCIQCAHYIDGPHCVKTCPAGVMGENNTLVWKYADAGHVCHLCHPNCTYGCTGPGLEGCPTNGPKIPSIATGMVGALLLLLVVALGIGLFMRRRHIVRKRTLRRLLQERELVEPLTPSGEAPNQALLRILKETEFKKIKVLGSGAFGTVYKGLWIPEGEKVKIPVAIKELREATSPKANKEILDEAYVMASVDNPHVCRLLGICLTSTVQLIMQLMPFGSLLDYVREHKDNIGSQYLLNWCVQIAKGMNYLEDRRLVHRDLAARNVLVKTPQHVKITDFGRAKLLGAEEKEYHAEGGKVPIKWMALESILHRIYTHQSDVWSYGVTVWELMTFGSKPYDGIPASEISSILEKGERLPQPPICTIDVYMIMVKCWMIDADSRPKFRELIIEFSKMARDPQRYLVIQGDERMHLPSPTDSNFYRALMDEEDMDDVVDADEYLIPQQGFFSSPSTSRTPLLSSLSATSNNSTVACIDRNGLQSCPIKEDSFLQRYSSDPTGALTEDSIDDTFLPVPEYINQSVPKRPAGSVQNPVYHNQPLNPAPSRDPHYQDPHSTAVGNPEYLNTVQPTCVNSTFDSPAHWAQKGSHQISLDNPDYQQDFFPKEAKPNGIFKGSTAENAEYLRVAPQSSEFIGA

Structure (SMILES)	IC50 [1, 2] [nM]	IC50 (EGFR (L858R T790M C797S)) [nM]	IC50 [1, 3] [nM]
[2H]C([2H])([2H])O[C@@H]1CCN(c2nccc(Nc3cc4c(C(C)C)ncc(N5C[C@H](CS(C)(=O)=O)[C@H]5C)c4cn3)n2)C[C@@H]1F (single isomer, unassigned) [Compound 162, N-{2-[(3R,4S)-3-fluoro-4-(^2H3)methoxypiperidin-1-yl]pyrimidin-4-yl}-8-[(2R,3S)-3-(methanesulfonylmethyl)-2-methylazetidin-1-yl]-5-(propan-2-yl)-2,6-naphthyridin-3-amine or N-{2-[(3S,4R)-3-fluoro-4-(^2H3)methoxypiperidin-1-yl]pyrimidin-4-yl}-8-[(2R,3S)-3-(methanesulfonylmethyl)-2-methylazetidin-1-yl]-5-(propan-2-yl)-2,6-naphthyridin-3-amine]	≤ 10	≤ 15	–
C[C@@H]1[C@@H](CS(C)(=O)=O)CN1c1ccc(F)c2cc(Nc3ccnc(N4CC[C@@H](O)[C@@](C)(F)C4)n3)ncc12 (single isomer, unassigned) [Compound 33]	–	≤ 15	≤ 10
CNCCO[C@@H]1CCN(c2nccc(Nc3cc4c(C(C)C)ccc(N5C[C@H](CS(C)(=O)=O)[C@H]5C)c4cn3)n2)CC1(F)F (single isomer, unassigned) [Compound 300, N-{2-[(4R)-3,3-difluoro-4-[2-(methylamino)ethoxy]piperidin-1-yl]pyrimidin-4-yl}-8-[(2R,3S)-3-(methanesulfonylmethyl)-2-methylazetidin-1-yl]-5-(propan-2-yl)isoquinolin-3-amine or N-{2-[(4S)-3,3-difluoro-4-[2-(methylamino)ethoxy]piperidin-1-yl]pyrimidin-4-yl}-8-[(2R,3S)-3-(methanesulfonylmethyl)-2-methylazetidin-1-yl]-5-(propan-2-yl)isoquinolin-3-amine]	–	≤ 15	≤ 10
CCS(=O)(=O)C[C@H]1CN(c2ncc(C(C)C)c3cc(Nc4ccnc(N5CC[C@@](C)(O)C(F)(F)C5)n4)ncc23)[C@@H]1C (single isomer, unassigned) [Compound 230, (4R)-1-[4-({8-[(2R,3S)-3-[(ethanesulfonyl)methyl]-2-methylazetidin-1-yl]-5-(propan-2-yl)-2,7-naphthyridin-3-yl}amino)pyrimidin-2-yl]-3,3-difluoro-4-methylpiperidin-4-ol or (4S)-1-[4-({8-[(2R,3S)-3-[(ethanesulfonyl)methyl]-2-methylazetidin-1-yl]-5-(propan-2-yl)-2,7-naphthyridin-3-yl}amino)pyrimidin-2-yl]-3,3-difluoro-4-methylpiperidin-4-ol]	–	15.1 to 20	≤ 10
[2H]C([2H])([2H])O[C@H]1CCN(c2nccc(Nc3cc4c(C(C)C)ccc(N5CC(CS(C)(=O)=O)C5)c4cn3)n2)CC1(F)F (single isomer, unassigned) [Compound 286, N-{2-[(4S)-3,3-difluoro-4-(^2H3)methoxypiperidin-1-yl]pyrimidin-4-yl}-8-[3-(methanesulfonylmethyl)azetidin-1-yl]-5-(propan-2-yl)isoquinolin-3-amine or N-{2-[(4R)-3,3-difluoro-4-(^2H3)methoxypiperidin-1-yl]pyrimidin-4-yl}-8-[3-(methanesulfonylmethyl)azetidin-1-yl]-5-(propan-2-yl)isoquinolin-3-amine]	–	15.1 to 20	10.1 to 20
CCS(=O)(=O)CC1CN(c2ccc(C(C)C)c3cc(Nc4ccnc(N5CC[C@@H](O)[C@@](C)(F)C5)n4)ncc23)C1 (single isomer, unassigned) [Compound 110]	–	≤ 15	≤ 10
CO[C@@H]1[C@H](O)CN(c2nccc(Nc3cc4c(C(C)C)cnc(N5C[C@H](CS(C)(=O)=O)[C@H]5C)c4cn3)n2)CC1(F)F (single isomer, unassigned) [Compound 236, (3S,4S)-5,5-difluoro-1-[4-({8-[(2R,3S)-3-(methanesulfonylmethyl)-2-methylazetidin-1-yl]-5-(propan-2-yl)-2,7-naphthyridin-3-yl}amino)pyrimidin-2-yl]-4-methoxypiperidin-3-ol or (3R,4R)-5,5-difluoro-1-[4-({8-[(2R,3S)-3-(methanesulfonylmethyl)-2-methylazetidin-1-yl]-5-(propan-2-yl)-2,7-naphthyridin-3-yl}amino)pyrimidin-2-yl]-4-methoxypiperidin-3-ol]	10.1 to 20	≤ 15	–
CO[C@H]1CCN(c2nccc(Nc3cc4cccc(N5C[C@H](CS(C)(=O)=O)[C@H]5C)c4cn3)n2)C[C@H]1F [Compound 4, N-{2-[(3R,4S)-3-fluoro-4-methoxypiperidin-1-yl]pyrimidin-4-yl}-8-[(2R,3S)-3-(methanesulfonylmethyl)-2-methylazetidin-1-yl]isoquinolin-3-amine]	–	≤ 15	30.1 to 50
COC1CCN(c2nccc(Nc3cc4c(C(C)C)cnc(N5CC(CS(C)(=O)=O)C5)c4cn3)n2)CC1 [Compound 22, 8-[3-(methanesulfonylmethyl)azetidin-1-yl]-N-[2-(4-methoxypiperidin-1-yl)pyrimidin-4-yl]-5-(propan-2-yl)-2,7-naphthyridin-3-amine]	–	≤ 15	≤ 10
CO[C@@H]1CCN(c2nccc(Nc3cc4c(C(C)C)cnc(N5C[C@H](CS(C)(=O)=O)[C@H]5C)c4cn3)n2)C[C@@H]1F [Compound 132, N-{2-[(3S,4R)-3-fluoro-4-methoxypiperidin-1-yl]pyrimidin-4-yl}-8-[(2R,3S)-3-(methanesulfonylmethyl)-2-methylazetidin-1-yl]-5-(propan-2-yl)-2,7-naphthyridin-3-amine]	–	≤ 15	≤ 10
CCS(=O)(=O)C[C@H]1CN(c2cnc(C(C)C)c3cc(Nc4ccnc(N5CC[C@@](C)(O)[C@@H](F)C5)n4)ncc23)[C@@H]1C (single isomer, unassigned) [Compound 194]	–	≤ 15	≤ 10
CC(C)c1ccc(N2C[C@H](CS(C)(=O)=O)[C@H]2C)c2cnc(Nc3ccnc(N4C[C@@H](F)[C@@H](O)[C@](C)(F)C4)n3)cc12 (single isomer, unassigned) [Compound 212, (3R,4R,5R)-3,5-difluoro-1-[4-({8-[(2R,3S)-3-(methanesulfonylmethyl)-2-methylazetidin-1-yl]-5-(propan-2-yl)isoquinolin-3-yl}amino)pyrimidin-2-yl]-3-methylpiperidin-4-ol or (3S,4S,5S)-3,5-difluoro-1-[4-({8-[(2R,3S)-3-(methanesulfonylmethyl)-2-methylazetidin-1-yl]-5-(propan-2-yl)isoquinolin-3-yl}amino)pyrimidin-2-yl]-3-methylpiperidin-4-ol]	–	≤ 15	≤ 10
CCc1ccc(N2C[C@H](CS(C)(=O)=O)[C@H]2C)c2cnc(Nc3ccnc(N4CC[C@@H](O)[C@@](C)(F)C4)n3)cc12 (single isomer, unassigned) [Compound 65]	–	≤ 15	≤ 10
CO[C@@H]1CCN(c2nccc(Nc3cc4c(C(C)C)ccc(N5C[C@H](CS(C)(=O)=O)[C@H]5C)c4cn3)n2)C[C@@H]1OCCO (single isomer, unassigned) [Compound 296, 2-{[(3S,4R)-1-[4-({8-[(2R,3S)-3-(methanesulfonylmethyl)-2-methylazetidin-1-yl]-5-(propan-2-yl)isoquinolin-3-yl}amino)pyrimidin-2-yl]-4-methoxypiperidin-3-yl]oxy}ethan-1-ol or 2-{[(3R,4S)-1-[4-({8-[(2R,3S)-3-(methanesulfonylmethyl)-2-methylazetidin-1-yl]-5-(propan-2-yl)isoquinolin-3-yl}amino)pyrimidin-2-yl]-4-methoxypiperidin-3-yl]oxy}ethan-1-ol]	–	30.1 to 100	10.1 to 20
CO[C@@H]1CCN(c2nccc(Nc3cc4c(C(C)C)ncc(N5CC(CS(C)(=O)=O)C5)c4cn3)n2)C[C@@H]1F [Compound 74, N-{2-[(3S,4R)-3-fluoro-4-methoxypiperidin-1-yl]pyrimidin-4-yl}-8-[3-(methanesulfonylmethyl)azetidin-1-yl]-5-(propan-2-yl)-2,6-naphthyridin-3-amine]	–	≤ 15	≤ 10
CCS(=O)(=O)C[C@H]1CN(c2ccc(C(C)C)c3cc(Nc4ccnc(N5CC[C@@H](OC)[C@@H](O)C5)n4)ncc23)[C@@H]1C (single isomer, unassigned) [Compound 176, (3S,4R)-1-[4-({8-[(2R,3S)-3-[(ethanesulfonyl)methyl]-2-methylazetidin-1-yl]-5-(propan-2-yl)isoquinolin-3-yl}amino)pyrimidin-2-yl]-4-methoxypiperidin-3-ol, or (3R,4S)-1-[4-({8-[(2R,3S)-3-[(ethanesulfonyl)methyl]-2-methylazetidin-1-yl]-5-(propan-2-yl)isoquinolin-3-yl}amino)pyrimidin-2-yl]-4-methoxypiperidin-3-ol]	–	≤ 15	≤ 10
CC(C)c1ccc(N2CC(CS(C)(=O)=O)C2)c2cnc(Nc3ccnc(N4CC[C@@H](F)[C@H](O)C4)n3)cc12 (single isomer, unassigned) [Compound 24, (3S,4S)-4-fluoro-1-[4-({8-[3-(methanesulfonylmethyl)azetidin-1-yl]-5-(propan-2-yl)isoquinolin-3-yl}amino)pyrimidin-2-yl]piperidin-3-ol or (3R,4R)-4-fluoro-1-[4-({8-[3-(methanesulfonylmethyl)azetidin-1-yl]-5-(propan-2-yl)isoquinolin-3-yl}amino)pyrimidin-2-yl]piperidin-3-ol]	–	≤ 15	20.1 to 30
